{"source": "patent US5641659A", "about": "“α-l-rhamnosidase for obtaining rhamnose, a process for its preparation and its use” (priority 1992, dated 1997)", "test_system": "α-L-rhamnosidase from Penicillium sp. DSM 6826", "test": "Influence of different substances on the activity of the purified α-L-rhamnosidase", "type": "biochemical", "settings": "control = 100", "procedure": "p-Nitrophenyl-α-L-rhamnopyranoside is used as the substrate for detecting the α-L-rhamnosidase activity. 10 mg of this substrate are dissolved in 10 ml of ammonium acetate buffer (pH 5.5, 50 mM). 100 μl of culture filtrate or cell lysates are added to 900 μl of this solution and the mixture is then incubated at 40° C. After 0, 3, 6, 9 and 12 minutes, 200 μl are removed and mixed with 800 μl of 200 mM borate buffer, pH 9. The release-of p-nitrophenol is monitored photometrically at 410 nm; naringinase (following Romero et al. Anal. Biochem. 149 566-571 (1985)) was used as the control.\nThe investigations summarized in the table below were carried out using the purified enzyme."}
{"smiles": "[Cl-].[Cl-].[Zn+2]", "note": "[ZnCl2]", "values": [{"measurement": "% activity", "setting": "substance at 2 mM", "result": 65, "unit": "%"}]}
{"smiles": "O=C(O)CN(CCOCCOCCN(CC(=O)O)CC(=O)O)CC(=O)O", "note": "[EGTA, reference compound]", "values": [{"measurement": "% activity", "setting": "substance at 10 mM", "result": 60, "unit": "%"}]}
{"smiles": "O=S(=O)([O-])[O-].[Fe+2]", "note": "[FeSO4]", "values": [{"measurement": "% activity", "setting": "substance at 0.5 mM", "result": 100, "unit": "%"}]}
{"smiles": "C[C@@H]1OC(O)[C@H](O)[C@H](O)[C@H]1O", "note": "(single isomer, unassigned) [L-Rhamnose, 6-deoxy-L-mannose]", "values": [{"measurement": "% activity", "setting": "substance at 0.5 M", "result": 51, "unit": "%"}, {"measurement": "% activity", "setting": "substance at 1.0 M", "result": 39.5, "unit": "%"}, {"measurement": "% activity", "setting": "substance at 1.5 M", "result": 26.4, "unit": "%"}]}
{"smiles": "O=C(O)CN(CCN(CC(=O)O)CC(=O)O)CC(=O)O", "note": "[EDTA, reference compound]", "values": [{"measurement": "% activity", "setting": "substance at 10 mM", "result": 22, "unit": "%"}]}
{"smiles": "[Cl-].[K+]", "note": "[KCl]", "values": [{"measurement": "% activity", "setting": "substance at 100 mM", "result": 69, "unit": "%"}]}
{"smiles": "[Cl-].[Cl-].[Co+2]", "note": "[CoCl2]", "values": [{"measurement": "% activity", "setting": "substance at 2 mM", "result": 41, "unit": "%"}]}
{"smiles": "[Ca+2].[Cl-].[Cl-]", "note": "[CaCl2]", "values": [{"measurement": "% activity", "setting": "substance at 20 mM", "result": 127, "unit": "%"}]}
{"smiles": "[Cl-].[Cs+]", "note": "[CsCl]", "values": [{"measurement": "% activity", "setting": "substance at 2 mM", "result": 96, "unit": "%"}]}
{"smiles": "[Cl][Cu][Cl]", "note": "[CuCl2]", "values": [{"measurement": "% activity", "setting": "substance at 0.5 mM", "result": 40, "unit": "%"}]}
{"smiles": "[Cl][Mn][Cl]", "note": "[MnCl2]", "values": [{"measurement": "% activity", "setting": "substance at 2 mM", "result": 27, "unit": "%"}]}
{"smiles": "O=S(=O)([O-])[O-].[Mg+2]", "note": "[MgSO4]", "values": [{"measurement": "% activity", "setting": "substance at 2 mM", "result": 106, "unit": "%"}]}
